Like-named read-outs stand apart in the source and are kept apart here.
Tested on: HBV
Experiment: HBV-DNA antiviral assay using HepG2.117 cells (intracellular HBV DNA by qPCR)
Assay type: cell-based, HBV genotype D
Conditions: HBV DNA inhibition, 3 days incubation
Method: The following assay procedure describes the HBV antiviral assay, using HepG2.117 cells, which carry a stably integrated genotype D HBV genome under the control of a Tet-off promoter, and intracellular HBV DNA quantification as endpoint. Cell viability is assessed in parallel by measuring the intracellular ATP content using ATPlite (Perkin Elmer).
On day 0, HepG2.117 cells (which are maintained in routine cell culture with doxycycline present in the medium at a final concentration of 1 μg/mL) were seeded in 96-well plates (white with clear bottom) at a density of 2.0×10^4 cells/well (0.1 mL/well) in medium without doxycycline to induce pgRNA transcription and subsequent formation of HBV particles. The cells were incubated at 37° C. and 5% CO2.
On day 1, medium was removed from each well, the test articles were diluted in culture medium without doxcycyline and 100 μL was added to cell culture wells (9 concentrations, 4-fold dilution). For each plate, 6 untreated (merely DMSO) wells were included. The final concentration of DMSO in the culture medium was 2%. Each plate was prepared in duplicate (one for HBV DNA extraction, one for ATPlite measurement). The cells were incubated at 37° C. and 5% CO2 for 3 days.
On day 4, cell viability was assessed using ATPlite and cell lysates were prepared for HBV DNA extraction and subsequent quantification by qPCR.
Medium was removed from each well and 100 μL of 0.33% NP-40 in H2O was added to each well. Plates were sealed, incubated at 4° C. for 5 mins, vortexed extensively and centrifuged briefly. Next, 35 μL of lysate was added to 65 μL QuickExtract DNA Extraction Solution (Epicentre) in a PCR plate for each well. PCR plate was incubated at 65° C. for 6 mins, 98° C. for 2 mins and finally cooled to 4° C. HBV DNA was then quantified by qPCR with HBV-specific primers and probes as specified in Table 1 using the Bio-Rad SSOAdvanced Universal Probes Supermix on a CFX96 machine (Bio-Rad). The PCR cycle program consisted of 95° C. for 3 mins, followed by 40 cycles at 95° C. for 10 sec and 60° C. for 30 sec.
A DNA standard was prepared by dilution of an IDT gBlock corresponding to the amplicon with concentrations ranging from 10^2 to 10^8 copies/input (i.e. per 4 μL) and used to generate a standard curve by plotting Cq values vs. HBV DNA standard concentration. The quantity of HBV DNA in each sample was determined by interpolating from the standard curve.
Cell viability was calculated as follows: % Cell viability=(luminescence value of test sample)/(average luminescence value of 2% DMSO control)×100%. HBV DNA inhibition was calculated as follows: 100−(HBV DNA copy number of test sample)/(average HBV DNA copy number of 2% DMSO control)×100%. No normalization to entecavir was required due to the excellent dynamic window of this assay. The CC50, EC50 and EC90 values were determined by dose-response curves fitted using non-linear regression.

[1] = Hepatitis B virus, HepG2.117, 72 h, read-out: EC50

| SMILES | EC50 [1] | also measured |
| --- | --- | --- |
| CNc1ccnc(-c2ccccc2CNC(=O)c2c3n(c(=O)n2-c2ccc(OC4CC4)cc2)CC(C)N(C(=O)c2ccc(Br)c(C(F)(F)F)c2)C3)n1 (racemic) [Compound 28a, rac-(6R)-7-[4-bromo-3-(trifluoromethyl)benzoyl]-2-[4-(cyclopropoxy)phenyl]-6-methyl-N-[[2-[4-(methylamino)pyrimidin-2-yl]phenyl]methyl]-3-oxo-6,8-dihydro-5H-imidazo[1,5-a]pyrazine-1-carboxamide] | < 50 nM | – |
| C[C@@H]1Cn2c(c(C(=O)NCc3c(F)cccc3-c3ccccn3)n(-c3ccc(OC4CC4)cc3)c2=O)CN1C(=O)c1ccc(Br)c(C(F)(F)F)c1 (racemic) [Compound 41a, rac-(6R)-7-[4-bromo-3-(trifluoromethyl)benzoyl]-2-[4-(cyclopropoxy)phenyl]-N-[[2-fluoro-6-(2-pyridyl)phenyl]methyl]-6-methyl-3-oxo-6,8-dihydro-5H-imidazo[1,5-a]pyrazine-1-carboxamide] | < 50 nM | – |
| C[C@H]1Cn2c(c(C(=O)NCc3ccccc3-c3ccncn3)n(-c3ccc(OC[C@H](O)C(F)(F)F)cc3)c2=O)CN1C(=O)c1ccc(Br)c(C(F)(F)F)c1 (racemic) [Compound 63b, (6SR)-7-[4-bromo-3-(trifluoromethyl)benzoyl]-6-methyl-3-oxo-N-[(2-pyrimidin-4-ylphenyl)methyl]-2-[4-[(25)-3,3,3-trifluoro-2-hydroxy-propoxy]phenyl]-6,8-dihydro-5H-imidazo[1,5-a]pyrazine-1-carboxamide] | 50 to 500 nM | – |
| C[C@H](O)COc1ccc(-n2c(C(=O)NCc3ccccc3-c3ncccn3)c3n(c2=O)C[C@H](C)N(C(=O)c2ccc(Br)c(C(F)(F)F)c2)C3)cc1 (racemic) [Compound 65b, (6SR)-7-[4-bromo-3-(trifluoromethyl)benzoyl]-2-[4-[(25)-2-hydroxypropoxy]phenyl]-6-methyl-3-oxo-N-[(2-pyrimidin-2-ylphenyl)methyl]-6,8-dihydro-5H-imidazo[1,5-a]pyrazine-1-carboxamide] | 50 to 500 nM | – |
| C[C@@H]1Cn2c(c(C(=O)NCc3ccccc3-c3ccncn3)n(-c3ccc(OCC4(O)CC4)cc3)c2=O)CN1C(=O)c1ccc(Br)c(C(F)(F)F)c1 (racemic) [Compound 74a, rac-(6R)-7-[4-bromo-3-(trifluoromethyl)benzoyl]-2-[4-[(1-hydroxycyclopropyl)methoxy]phenyl]-6-methyl-3-oxo-N-[(2-pyrimidin-4-ylphenyl)methyl]-6,8-dihydro-SH-imidazo[1,5-a]pyrazine-1-carboxamide] | 50 to 500 nM | – |
| C[C@H]1Cn2c(c(C(=O)NCc3ccccc3-c3ncccn3)n(-c3ccc(N4CC5(CN(C)C5)C4)cc3)c2=O)CN1C(=O)c1ccc(Br)c(C(F)(F)F)c1 (racemic) [Compound 78b, rac-(6S)-7-[4-bromo-3-(trifluoromethyl)benzoyl]-6-methyl-2-[4-(6-methyl-2,6-diazaspiro[3.3]heptan-2-yl)phenyl]-3-oxo-N-[(2-pyrimidin-2-ylphenyl)methyl]-6,8-dihydro-SH-imidazo[1,5-a]pyrazine-1-carboxamide] | 50 to 500 nM | – |
| CN[C@H](C)COc1ccc(-n2c(C(=O)NCc3ccccc3-c3ncccn3)c3n(c2=O)C[C@H](C)N(C(=O)c2ccc(Br)c(C(F)(F)F)c2)C3)cc1 (racemic) [Compound 95b, rac-(6S)-7-[4-bromo-3-(trifluoromethyl)benzoyl]-6-methyl-2-[4-[2-(methylamino)propoxy]phenyl]-3-oxo-N-[(2-pyrimidin-2-ylphenyl)methyl]-6,8-dihydro-5H-imidazo[1,5-a]pyrazine-1-carboxamide] | 50 to 500 nM | – |
| C[C@H](COc1ccc(-n2c(C(=O)NCc3ccccc3-c3ncccn3)c3n(c2=O)C[C@H](C)N(C(=O)c2ccc(Br)c(C(F)(F)F)c2)C3)cc1)N1CCOCC1 (racemic) [Compound 96b, rac-(6S)-7-[4-bromo-3-(trifluoromethyl)benzoyl]-6-methyl-2-[4-(2-morpholinopropoxy)phenyl]-3-oxo-N-[(2-pyrimidin-2-ylphenyl)methyl]-6,8-dihydro-5H-imidazo[1,5-a]pyrazine-1-carboxamide] | < 50 nM | – |
| Cc1nnc(-c2ccccc2CNC(=O)c2c3n(c(=O)n2-c2ccc(OC4CC4)cc2)CC(C)N(C(=O)c2ccc(Br)c(Cl)c2)C3)o1 (single isomer, unassigned) [Compound 1a, (S*)-7-(4-bromo-3-chlorobenzoyl)-2-(4-cyclopropoxyphenyl)-6-methyl-N-(2-(5-methyl-1,3,4-oxadiazol-2-yl)benzyl)-3-oxo-2,3,5,6,7,8-hexahydroimidazo[1,5-a]pyrazine-1-carboxamide] | 50 to 500 nM | – |
| Cc1nnc(-c2ccccc2CNC(=O)c2c3n(c(=O)n2-c2ccc(OC4CC4)cc2)CC(C)N(C(=O)c2ccc(Br)c(Cl)c2)C3)o1 (single isomer, unassigned) [Compound 1b, (6R*)-7-(4-bromo-3-chlorobenzoyl)-2-(4-cyclopropoxyphenyl)-6-methyl-N-(2-(5-methyl-1,3,4-oxadiazol-2-yl)benzyl)-3-oxo-2,3,5,6,7,8-hexahydroimidazo[1,5-a]pyrazine-1-carboxamide] | – | EC50 (read-out: EC50): < 50 nM |
| CC1Cn2c(c(C(=O)NCc3c(F)cccc3-c3ccncn3)n(-c3ccc(OC4CC4)cc3)c2=O)CN1C(=O)c1ccc(Br)c(Cl)c1 (single isomer, unassigned) [Compound 2a, (S*)-7-(4-bromo-3-chlorobenzoyl)-2-(4-cyclopropoxyphenyl)-N-(2-fluoro-6-(pyrimidin-4-yl)benzyl)-6-methyl-3-oxo-2,3,5,6,7,8-hexahydroimidazo[1,5-a]pyrazine-1-carboxamide] | 50 to 500 nM | – |
| CC1Cn2c(c(C(=O)NCc3c(F)cccc3-c3ccncn3)n(-c3ccc(OC4CC4)cc3)c2=O)CN1C(=O)c1ccc(Br)c(Cl)c1 (single isomer, unassigned) [Compound 2b, (R*)-7-(4-bromo-3-chlorobenzoyl)-2-(4-cyclopropoxyphenyl)-N-(2-fluoro-6-(pyrimidin-4-yl)benzyl)-6-methyl-3-oxo-2,3,5,6,7,8-hexahydroimidazo[1,5-a]pyrazine-1-carboxamide] | – | EC50 (read-out: EC50): < 50 nM |
| CC1Cn2c(c(C(=O)NCc3ccccc3-c3ncccn3)n(-c3ccc(OC4CC4)cc3)c2=O)CN1C(=O)c1ccc(Br)c(Cl)c1 (single isomer, unassigned) [Compound 3a, (6S*)-7-(4-bromo-3-chloro-benzoyl)-2-[4-(cyclopropoxy)phenyl]-6-methyl-3-oxo-N-[(2-pyrimidin-2-ylphenyl)methyl]-6,8-dihydro-5H-imidazo[1,5-a]pyrazine-1-carboxamide] | < 50 nM | – |
| CC1Cn2c(c(C(=O)NCc3ccccc3-c3ncccn3)n(-c3ccc(OC4CC4)cc3)c2=O)CN1C(=O)c1ccc(Br)c(Cl)c1 (single isomer, unassigned) [Compound 3b, (6R*)-7-(4-bromo-3-chloro-benzoyl)-2-[4-(cyclopropoxy)phenyl]-6-methyl-3-oxo-N-[(2-pyrimidin-2-ylphenyl)methyl]-6,8-dihydro-5H-imidazo[1,5-a]pyrazine-1-carboxamide] | – | EC50 (read-out: EC50): 50 to 500 nM |
| CC1Cn2c(c(C(=O)NCc3ccccc3-c3ccncn3)n(-c3ccc(-n4cccn4)cc3)c2=O)CN1C(=O)c1ccc(Br)c(Cl)c1 (single isomer, unassigned) [Compound 4a, 7-(4-bromo-3-chloro-benzoyl)-6-methyl-3-oxo-2-(4-pyrazol-1-ylphenyl)-N-[(2-pyrimidin-4-ylphenyl)methyl]-6,8-dihydro-5H-imidazo[1,5-a]pyrazine-1-carboxamide] | 50 to 500 nM | – |
| CC1Cn2c(c(C(=O)NCc3ccccc3-c3ccncn3)n(-c3ccc(-n4cccn4)cc3)c2=O)CN1C(=O)c1ccc(Br)c(Cl)c1 (single isomer, unassigned) [Compound 4b, 7-(4-bromo-3-chloro-benzoyl)-6-methyl-3-oxo-2-(4-pyrazol-1-ylphenyl)-N-[(2-pyrimidin-4-ylphenyl)methyl]-6,8-dihydro-5H-imidazo[1,5-a]pyrazine-1-carboxamide] | – | EC50 (listed as 4h): < 50 nM |

— US11845752B2, “Substituted imidazo[1,5-a]pyrazines for the treatment of hepatitis B” (ALIGOS THERAPEUTICS, INC., priority 2020, dated 2023)
